From US20230190883A1, “STABLE PEPTIDES HAVING RENALASE AGONIST ACTIVITY” (Bessor Pharma, LLC, priority 2020, published 2023)
Marks after values point to notes of the source that are not given here.

What was measured:
[1] = system: carrageenan-induced Paw edema; assay: carrageenan-induced paw edema (CPE) model in mice; type: in vivo, CD-1 mice; settings: for activity at 2 hours: 2 hours after carrageenan
Text: This test is a rapid in vivo model for evaluation of anti-inflammatory efficacy of test articles. The CPE model in mice quantitativdy assesses inhibition of edema enduced by subplantarinjection of carrageenan. […] Carrageenan-induced inflammation invoves extravasation of polymorphonuclear leukocytes from circulation to the site of inflammation. The subsequent release of myeloperoxidase and other cytokines within the interstitial tissues results in plasma exudation into the site of inflammation. The increased paw volume is measured by water displacement. Anti-inflammatory drugs reduce the paw edema.
• 1. Receive (SOP 1910, SOP 1920) and quarantine (SOP 560) 125 CD-1 mice (Charles River Laboratories, male, 5-6 weeks old). • 2. Animals are ear tagged (SOP 810), weighed, and sorted into 9 groups with 10 animals/group and 5 groups of 7 animals/group based upon average body weight. • 3. Prepare 3% carrageenan solution: • 1) Preparation at least 2 weeks in advance of use. • 2) Weigh out 600 mg A-carrageenan into a glass beaker. • 3) Add 20 ml deionized water. • 4) Stir on mild heat until carrageenan fully dissolved. • 5) Cool solution to ambient temperature. • 6) Store at 4-8° C. • 4. Until the day of use the renalase peptides are stored at -20° C. as dry powder. • 5. DAY 0 • a. Prepare test material in sterile saline (vehicle). • b. On the day of dosing, renalase peptides are dissolved. • c. On day prior to administration check carrageenan solution for clarity (no visible evidence of contamination). • 1) Equilibrate carrageenan to ambient temperature. • d. Record mouse weights in laboratory notebook. • e. Measure and record paw initial paw volumes: • 1) Place beaker of water on balance and tare to zero. • 2) Place right hind limb in the beaker of water on the scale with the top of the hock centered in the meniscus of the water. Record read-out on the scale. • 3) The foot must be dried after each measurement as wet feet will change the readout. • 4) Re-tare the scale between measurements to account for decrease in water volume. • f. […]
The test was also conducted to compare the inhibition of inflammation by peptide 10 as compared to the corresponding peptide fragment without the alanine substitution at position 220 (peptide 81).

acute pancreatitis = assay: experimental acute pancreatitis (AP), mouse model; type: in vivo
Text: This likely represents inhibition of inflammatory pathways central to AP pathogenesis; a probable target is inflammatory activation (FIG. 5). Since most patients with AP present long after disease onset and later onset responses are most important in determining AP severity, the beneficial effects of peptide 10 should be therapeutically valuable even late in the course of disease. In this context we have shown that RNLS agonists reduce injury when given 2 hrs after the onset of cerulein AP and 12hrs after the induction of arginine AP.

[2] = system: cultured proximal renal tubule cell line; assay: cisplatin-induced injury of cultured kidney cells; type: cell-based
Text: We have shown that a peptide of the invention [Ala^220]-Ac-Renalase A (205-240)-NH2 eliminated cisplatin-induced injury of cultured kidney cells. […] Data are shown below for such RNLS agonists

[3] = system: renal ischemia reperfusion injury; assay: renal ischemia reperfusion injury, preclinical murine model; type: in vivo
[4] = system: blood from healthy donors; type: cell-based
[5] = system: cerulin-induced severe pancreatitis; assay: cerulin-induced severe pancreatitis model; type: in vivo; settings: FIG. 13
cronin 1 = assay: levels of cronin 1, marker for inflammatory cells; settings: FIG. 14
COVID-19 mouse model = assay: COVID-19 mouse model, survival; settings: FIG. 11
severe viral infection = assay: model of severe viral infection in renalase-deficient mice; settings: FIG. 12
[6] = system: cisplatin induced kidney injury; assay: cisplatin-induced kidney injury in vivo
Text: A key measure of this toxicity is a decrease in kidney mass; this is limited when Renalase A (205-240)-OH is given. More dramatic is the effect of peptide on the reduced renal function seen with cisplatin induced renal injury.

[7] = peptide at 50 ug/ml, 3 hrs incubation, ELISA, p<0.01
[8] = 10 mpk, * = statistical significance

[Ala^220]-Ac-Renalase A (205-240)-NH2 (KIDVPWAGQYITSNPAIRFVSIDNKKRNIESSEIGP; N-acetyl, C-terminal amide; Based on homo sapiens sequence) [peptide 10]
anti-inflammatory effect on paw edema ([1]; 0.3-30 mg/kg SC 30 min prior to carrageenan, test period of 10 hours, FIGS. 6 and 7): has an anti-inflammatory effect | activity at 2 hours [1]: active | activity and duration of activity compared with peptide 81 ([1]; comparable but different experiments, same protocols): more active and longer active than peptide 81 | activity for longer periods of time ([1]; later than 2 hours): only peptide 10 was active | activity compared with standards ([1]; versus dexamethasone and indomethacin): activity more in line with standards dexamethasone and indomethacin | injury in acute pancreatitis (acute pancreatitis; FIG. 2): reduces injury | earliest AP responses (acinar cell related) (acute pancreatitis; earliest responses, not shown): no effects | levels of active trypsin (acute pancreatitis; later responses (6 hrs), FIG. 2A): tended to reduce | tissue neutrophils (acute pancreatitis; later responses (6 hrs), FIG. 2B): dramatically decrease | mitochondrial injury as determined by OPA-1 and Parkin levels (acute pancreatitis; later responses (6 hrs), FIG. 2C, D): reduced | cisplatin-induced injury of cultured kidney cells [2]: eliminated | injury in a cultured proximal renal tubule cell line ([2]; FIG. 3): reduces injury | renal ischemia reperfusion injury [3]: reduced | inflammatory response to SARS-CoV-2 peptides ([4]; FIG. 5): decreases | SARS-CoV-2-peptide induced increase of IL1-beta [4, 7]: inhibited | SARS-CoV-2-peptide induced increase of IL6 [4, 7]: inhibited | SARS-CoV-2-peptide induced increase of TNF-alpha [4, 7]: inhibited | SARS-CoV-2 peptide S and M induced levels of interferon-gamma ([4]; peptide at 50 ug/ml, SARS-CoV-2 peptides 0.19 nM, 3 hrs incubation, ELISA): dramatically decreased | necrosis [5]: effective in reducing necrosis | levels of cronin 1 (cronin 1): decreases | survival (COVID-19 mouse model): improves survival | protection in severe viral infection (severe viral infection): protects

C[C@@H]1C[C@H]2[C@@H]3CCC4=CC(=O)C=C[C@]4(C)[C@@]3(F)[C@@H](O)C[C@]2(C)[C@@]1(O)C(=O)CO [Dexamethasone, reference compound]
percent change from control, paw edema, 2 hr after carrageenan [1, 8]: 51.2* percent | percent change from control, paw edema, 4 hr after carrageenan ([1]; 10 mpk): 49.7* percent | percent change from control, paw edema, 10 hr after carrageenan ([1]; 10 mpk): 55.6* percent

COc1ccc2c(c1)c(CC(=O)O)c(C)n2C(=O)c1ccc(Cl)cc1 [Indomethacin, reference compound]
percent change from control, paw edema, 2 hr after carrageenan ([1]; 5 mpk): 79.4* percent | percent change from control, paw edema, 4 hr after carrageenan ([1]; 5 mpk): 60.3* percent | percent change from control, paw edema, 6 hr after carrageenan ([1]; 5 mpk): 42.4* percent | percent change from control, paw edema, 10 hr after carrageenan ([1]; 5 mpk): 21.3%

Renalase A (205-240)-OH [Peptide 81]
percent change from control, paw edema, 2 hr after carrageenan ([1]; 3 mpk): 14.2% | percent change from control, paw edema, 4 hr after carrageenan ([1]; 3 mpk): 1.6% | percent change from control, paw edema, 6 hr after carrageenan ([1]; 3 mpk): −13.1% | percent change from control, paw edema, 10 hr after carrageenan ([1]; 3 mpk): 2.4% | percent change from control, paw edema, 2 hr after carrageenan [1, 8]: 62.6* percent | percent change from control, paw edema, 4 hr after carrageenan ([1]; 10 mpk): 0.5% | percent change from control, paw edema, 6 hr after carrageenan ([1]; 10 mpk): 2.9% | percent change from control, paw edema, 10 hr after carrageenan ([1]; 10 mpk): 13.3% | activity at 2 hours [1]: active | plasma creatinine levels ([6]; 17 days of cisplatin treatment (4-fold increase without agonist), FIG. 4 right panel): reduced this toward the normal range | kidney injury after cisplatin-induced treatment ([6]; FIG. 4): reduces kidney injury | decrease in kidney mass ([6]; cisplatin toxicity, FIG. 4): limited
